Counter-ions that a name gives are not always drawn.
Biological target: T1, human β-Secretase (soluble part, AA1-AA460; sBACE-Fc) (Homo sapiens, UniProt P56817)
T1 construct: The soluble part of the human β-Secretase (AA1-AA460) was cloned into the ASP2-Fc10-1-IRES-GFP-neoK mammalian expression vector; made in house
Assay: TR-FRET assay
Format: biochemical
Details: substrate (Europium)CEVNLDAEFK(Qsy7) 100 nM, pH 4.5, 15 min at RT; read-out: IC50 (nM) in TR-FRET assay
Method: The enzyme used in the IGEN Cleavage-, Fluorescent-, TR-FRET- and BiaCore assays is described as follows:
The soluble part of the human β-Secretase (AA1-AA460) was cloned into the ASP2-Fc10-1-IRES-GFP-neoK mammalian expression vector. The gene was fused to the Fc domain of IgG1 (affinity tag) and stably cloned into HEK 293 cells. Purified sBACE-Fc is stored in Tris buffer, pH 9.2 and has a purity of 95%.
Enzyme was diluted to 6 μg/mL and the substrate (Europium)[…](Qsy7) to 200 nM in reaction buffer (NaAcetate, chaps, triton x-100, EDTA pH 4.5). Compounds were diluted to the desired concentration in dimethyl sulfoxide (final dimethyl sulfoxide concentration in assay is 5%). […] Enzyme (9 μL) and 1 μL of compound in dimethyl sulfoxide was added to the plate, mixed and pre-incubated for 10 min. Substrate (10 μL) was added and the reaction proceeded in the dark for 15 min at RT. The reaction was stopped with the addition of 7 μL NaAcetate, pH 9. The fluorescence of the product was measured on a Victor II plate reader with an excitation wavelength of 340 nm and an emission wavelength of 615 nm. […] The dimethyl sulfoxide control defined the 100% activity level and 0% activity was defined by exclusion of the enzyme (using reaction buffer instead).

T1 sequence (P56817 22-460): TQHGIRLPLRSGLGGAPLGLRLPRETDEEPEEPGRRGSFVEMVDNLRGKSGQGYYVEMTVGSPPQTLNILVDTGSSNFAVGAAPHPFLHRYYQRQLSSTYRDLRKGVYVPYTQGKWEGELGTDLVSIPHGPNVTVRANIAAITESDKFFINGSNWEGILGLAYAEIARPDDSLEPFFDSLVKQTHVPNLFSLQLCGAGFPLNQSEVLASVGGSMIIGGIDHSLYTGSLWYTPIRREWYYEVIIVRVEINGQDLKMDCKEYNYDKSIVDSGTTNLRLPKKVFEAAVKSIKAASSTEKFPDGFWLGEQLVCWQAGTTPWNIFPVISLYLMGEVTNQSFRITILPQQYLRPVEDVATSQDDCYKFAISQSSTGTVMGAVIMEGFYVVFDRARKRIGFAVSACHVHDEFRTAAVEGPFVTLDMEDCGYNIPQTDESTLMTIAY

Row | Structure (SMILES) | IC50
1 | COc1ccc(C2(c3cccc(-c4cc(OC)cc(OS(C)(=O)=O)c4)c3)N=C(N)N(C)C2=O)cc1 (centres unmarked) [Example 57, 3′-[2-Amino-4-(4-methoxyphenyl)-1-methyl-5-oxo-4,5-dihydro-1H-imidazol-4-yl]-5-methoxybiphenyl-3-yl methanesulfonate] | 34 nM
2 | CN1C(=O)C(c2cccc(OS(C)(=O)=O)c2)(c2cccc(C3=CCCC3)c2)N=C1N (centres unmarked) [Example 195, 3-[2-Amino-4-(3-cyclopent-1-en-1-yl-phenyl)-1-methyl-5-oxo-4,5-dihydro-1H-imidazol-4-yl]phenyl methanesulfonate hydrochloride] | 646 nM
3 | CCC(C)(C)c1ccc(S(=O)(=O)Oc2ccc(C3(c4ccc(F)c(-c5cccnc5)c4)N=C(N)N(C)C3=O)cc2)cc1 (centres unmarked) [Example 281, 4-[2-Amino-4-(4-fluoro-3-pyridin-3-ylphenyl)-1-methyl-5-oxo-4,5-dihydro-1H-imidazol-4-yl]phenyl 4-(1,1-dimethylpropyl)benzenesulfonate] | 79 nM
4 | COc1cccc(-c2ccnc(C3(c4ccc(OS(=O)(=O)C(F)(F)F)cc4)N=C(N)N(C)C3=O)c2)c1 (centres unmarked) [Example 298, 4-{2-Amino-4-[4-(3-methoxyphenyl)pyridin-2-yl]-1-methyl-5-oxo-4,5-dihydro-1H-imidazol-4-yl}phenyl trifluoromethanesulfonate 0.5 acetate] | 874 nM
5 | CN1C(=O)C(c2cccc(OS(C)(=O)=O)c2)(c2ccc(F)c(-c3cncc(F)c3)c2)N=C1N (centres unmarked) [Example 87, 3-{2-Amino-4-[4-fluoro-3-(5-fluoropyridin-3-yl)phenyl]-1-methyl-5-oxo-4,5-dihydro-1H-imidazol-4-yl}phenylmethanesulfonate] | 494 nM
6 | COc1cccc(-c2ccnc(C3(c4ccc(OS(C)(=O)=O)cc4)N=C(N)N(C)C3=O)c2)c1 (centres unmarked) [Example 296, 4-{2-Amino-4-[4-(3-methoxyphenyl)pyridin-2-yl]-1-methyl-5-oxo-4,5-dihydro-1H-imidazol-4-yl}phenyl methanesulfonate 0.25 acetate] | 1350 nM
7 | CN1C(=O)C(c2ccc(OC(F)F)cc2)(c2ccc(F)c(-c3cc(C#N)cc(OS(C)(=O)=O)c3)c2)N=C1N (centres unmarked) [Example 70, 5′-{2-Amino-4-[4-(difluoromethoxy)phenyl]-1-methyl-5-oxo-4,5-dihydro-1H-imidazol-4-yl}-5-cyano-2′-fluorobiphenyl-3-yl methanesulfonate hydrochloride] | 2420 nM
8 | COc1ccc(S(=O)(=O)Oc2ccc(C3(c4ccc(F)c(-c5cncnc5)c4)N=C(N)N(C)C3=O)cc2)cc1 (centres unmarked) [Example 279, 4-[2-amino-4-(4-fluoro-3-pyrimidin-5-ylphenyl)-1-methyl-5-oxo-4,5-dihydro-1H-imidazol-4-yl]phenyl 4-methoxybenzenesulfonate] | 23 nM
9 | CN1C(=O)C(c2ccc(OS(C)(=O)=O)cc2)(c2ccnc(-c3cccc(C#N)c3)c2)N=C1N (centres unmarked) [Example 34, 4-{2-Amino-4-[2-(3-cyanophenyl)pyridin-4-yl]-1-methyl-5-oxo-4,5-dihydro-1H-imidazol-4-yl}phenyl methanesulfonate 0.25 acetate] | 924 nM
10 | COc1cc(OS(C)(=O)=O)cc(-c2cccc(C3(c4ccc(OC)c(C)c4)N=C(N)N(C)C3=O)c2)c1 (centres unmarked) [Example 62, 3′-[2-Amino-4-(4-methoxy-3-methylphenyl)-1-methyl-5-oxo-4,5-dihydro-1H-imidazol-4-yl]-5-methoxybiphenyl-3-ylmethanesulfonate 0.25acetate] | 25 nM
11 | COc1ccc(C#N)c(-c2cccc(C3(c4cccc(OS(C)(=O)=O)c4)N=C(N)N(C)C3=O)c2)c1 (centres unmarked) [Example 176, 3-[2-Amino-4-(2′-cyano-5′-methoxybiphenyl-3-yl)-1-methyl-5-oxo-4,5-dihydro-1H-imidazol-4-yl]phenyl methanesulfonate hydrochloride] | 148 nM
12 | CN1C(=O)C(c2ccc(OS(C)(=O)=O)cc2)(c2ccnc(-c3cccnc3F)c2)N=C1N (centres unmarked) [Example 29, 4-[2-Amino-4-(2′-fluoro-2,3′-bipyridin-4-yl)-1-methyl-5-oxo-4,5-dihydro-1H-imidazol-4-yl]phenyl methanesulfonate 0.25 acetate] | 387 nM

Other lines, results leading:

Row | IC50 | Structure (SMILES)
13 | 321 nM | CCCS(=O)(=O)Oc1cccc(C2(c3ccc(F)c(-c4cncnc4)c3)N=C(N)N(C)C2=O)c1 (centres unmarked) [Example 102, 3-[2-Amino-4-(4-fluoro-3-pyrimidin-5-ylphenyl)-1-methyl-5-oxo-4,5-dihydro-1H-imidazol-4-yl]phenyl propane-1-sulfonate]
14 | 146 nM | COc1cccc(-c2cc(C3(c4cccc(OS(C)(=O)=O)c4)N=C(N)N(C)C3=O)ccc2F)c1 (centres unmarked) [Example 93, 3-[2-Amino-4-(6-fluoro-3′-methoxybiphenyl-3-yl)-1-methyl-5-oxo-4,5-dihydro-1H-imidazol-4-yl]phenyl methanesulfonate]
15 | 207 nM | CN1C(=O)C(c2cccc(OS(C)(=O)=O)c2)(c2ccc(F)c(-c3cc(Cl)cc(Cl)c3)c2)N=C1N (centres unmarked) [Example 89, 3-[2-Amino-4-(3′,5′-dichloro-6-fluorobiphenyl-3-yl)-1-methyl-5-oxo-4,5-dihydro-1H-imidazol-4-yl]phenyl methanesulfonate]
16 | 104 nM | Cc1cc(C2(c3ccc(F)c(-c4cc(Cl)cc(OS(C)(=O)=O)c4)c3)N=C(N)N(C)C2=O)ccn1 (centres unmarked) [Example 307, 5′-(2-Amino-1-methyl-4-(2-methylpyridin-4-yl)-5-oxo-4,5-dihydro-1H-imidazol-4-yl)-5-chloro-2′-fluorobiphenyl-3-yl methanesulfonate hydrochloride]
17 | 589 nM | CCCN1C(=O)C(c2ccc(OS(C)(=O)=O)cc2)(c2ccc(F)c(-c3cncnc3)c2)N=C1N (centres unmarked) [Example 165, 4-[2-Amino-4-(4-fluoro-3-pyrimidin-5-ylphenyl)-1-propyl-5-oxo-4,5-dihydro-1H-imidazol-4-yl]phenyl methanesulfonate 0.5 acetate]
18 | 651 nM | CN1C(=O)C(c2cccc(OS(C)(=O)=O)c2)(c2cccc(-c3cnccc3Cl)c2)N=C1N (centres unmarked) [Example 170, 3-{2-Amino-4-[3-(4-chloropyridin-3-yl)phenyl]-1-methyl-5-oxo-4,5-dihydro-1H-imidazol-4-yl}phenyl methanesulfonate hydrochloride]
19 | 633 nM | CN1C(=O)C(c2cccc(OS(=O)(=O)c3c(F)cccc3F)c2)(c2ccc(F)c(Br)c2)N=C1N (centres unmarked) [Example 225, 3-[2-Amino-4-(3-bromo-4-fluorophenyl)-1-methyl-5-oxo-4,5-dihydro-1H-imidazol-4-yl]phenyl 2,6-difluorobenzenesulfonate]
20 | 214 nM | CN1C(=O)C(c2ccc(OS(=O)(=O)C(F)(F)F)cc2)(c2ccc(F)c(-c3cnccn3)c2)N=C1N (centres unmarked) [Example 143, 4-[2-Amino-4-(4-fluoro-3-pyrazin-2-ylphenyl)-1-methyl-5-oxo-4,5-dihydro-1H-imidazol-4-yl]phenyl trifluoromethanesulfonate 0.5 acetate]
21 | 321 nM | CN1C(=O)C(c2ccc(OS(=O)(=O)C(F)(F)F)cc2)(c2ccc(F)c(-c3cncc(C#N)c3)c2)N=C1N (centres unmarked) [Example 144, 4-{2-Amino-4-[3-(5-cyanopyridin-3-yl)-4-fluorophenyl]-1-methyl-5-oxo-4,5-dihydro-1H-imidazol-4-yl}phenyl trifluoromethanesulfonate 0.5 acetate]
22 | 186 nM | CC(C)S(=O)(=O)Oc1cccc(C2(c3ccc(F)c(-c4cccnc4F)c3)N=C(N)N(C)C2=O)c1 (centres unmarked) [Example 104, 3-{2-Amino-4-[4-fluoro-3-(2-fluoropyridin-3-yl)phenyl]-1-methyl-5-oxo-4,5-dihydro-1H-imidazol-4-yl}phenyl propane-2-sulfonate]
23 | 20 nM | Cc1nn(C)c(Cl)c1S(=O)(=O)Oc1cccc(C2(c3ccc(F)c(-c4cncnc4)c3)N=C(N)N(C)C2=O)c1 (centres unmarked) [Example 241, 3-[2-Amino-4-(4-fluoro-3-pyrimidin-5-ylphenyl)-1-methyl-5-oxo-4,5-dihydro-1H-imidazol-4-yl]phenyl 5-chloro-1,3-dimethyl-1H-pyrazole-4-sulfonate]
24 | 352 nM | CCCS(=O)(=O)Oc1cccc(C2(c3ccc(F)c(-c4cc(Cl)cnc4F)c3)N=C(N)N(C)C2=O)c1 (centres unmarked) [Example 95, 3-{2-Amino-4-[3-(5-chloro-2-fluoropyridin-3-yl)-4-fluorophenyl]-1-methyl-5-oxo-4,5-dihydro-1H-imidazol-4-yl}phenyl propane-1-sulfonate]
25 | 834 nM | COc1ccnc(-c2cc(C3(c4ccc(OS(C)(=O)=O)cc4)N=C(N)N(C)C3=O)ccc2F)n1 (centres unmarked) [Example 6, 4-{2-Amino-4-[4-fluoro-3-(4-methoxypyrimidin-2-yl)phenyl]-1-methyl-5-oxo-4,5-dihydro-1H-imidazol-4-yl}phenyl methanesulfonate 0.25 acetate]
26 | 124 nM | CN1C(=O)C(c2cccc(OS(=O)(=O)c3ccccn3)c2)(c2ccc(F)c(-c3cncnc3)c2)N=C1N (centres unmarked) [Example 237, 3-[2-Amino-4-(4-fluoro-3-pyrimidin-5-ylphenyl)-1-methyl-5-oxo-4,5-dihydro-1H-imidazol-4-yl]phenyl pyridine-2-sulfonate]

From patent publication US20080176862A1, “New Compounds 617” (ASTRAZENECA AB, priority 2006, published 2008)
